Values of other authors as cited in US20250205506A1, “Treatment of viral infection” (priority 2023, published 2025).

What was measured:
[1] = test system: recurrent herpes labialis; settings: for Reduction of healing time: tablets, otherwise healthy people
herpes infections = settings: orally administered; red light from a HeNe laser
herpes zoster = settings: intravenously administered; golden light (565 nm yellow + 630 nm red) or red light to the affected area

SMILES	Reduction of healing time [1]	Combined effect with red light compared to acyclovir alone (herpes infections)	Combined effect with light compared to acyclovir alone (herpes zoster)	Preventative treatment of herpes ([1]; taken once daily)
Nc1nc2c(ncn2COCCO)c(=O)[nH]1 [acyclovir, 9-(2-hydroxyethoxymethyl) guanine]	reduce healing time by about one day	improvements over acyclovir alone	improvement over acyclovir alone	–
CC(=O)OCC(CCn1cnc2cnc(N)nc21)COC(C)=O [famciclovir]	reduce healing time by about one day	–	–	–
CC(C)[C@H](N)C(=O)OCCOCn1cnc2c(=O)[nH]c(N)nc21 [valacyclovir]	reduce healing time by about one day	–	–	effective preventative treatment for herpes reducing frequency and severity of outbreaks
